Experimental data reported in ChEMBL document CHEMBL5335865, “Macrocyclic Oxindole Peptide Epoxyketones-A Comparative Study of Macrocyclic Inhibitors of the 20S Proteasome” (ACS Med Chem Lett, 2024).
The source made the active and inactive calls.

Tests used:
[1] = target: T1, 20S proteasome (Homo sapiens) (UniProt P49721+P20618+P28074+P28062+P28065+P28072+P25786+P25787+P25788+P25789+P28066+P60900+O14818+Q8TAA3+P40306+A5LHX3+P49720+P28070+Q99436); assay: Inhibition of human 20S proteasome trypsin-like activity using Ac-RLR-AMC as a fluorogenic substrate at 130 uM measured every 20 seconds for 10 mins by fluorescence based assay; type: protein-complex assay
Chymotrypsin = Chymotrypsin (UniProt Q99895+P17538+P40313+Q6GPI1); assay: Inhibition of chymotrypsin (unknown origin) using Suc-LLVY-AMC as fluorogenic substrate at 130 uM measured every 20 seconds for 10 mins by fluorescence based assay; type: protein assay; conditions: Homo sapiens
[2] = target: Cathepsin B (Homo sapiens) (UniProt P07858); assay: Inhibition of human liver cathepsin B using Cbz-Arg-Arg-AMC as fluorogenic substrate at 130 uM measured every 20 seconds for 10 mins by fluorescence based assay
[3] = target: Calpain-2 catalytic subunit (Homo sapiens) (UniProt P17655); assay: Inhibition of m-calpain (unknown origin) using Suc-LLVY-AMC as fluorogenic substrate at 130 uM measured every 20 seconds for 10 mins by fluorescence based assay
[4] = target: T1, 20S proteasome (Homo sapiens); assay: Inhibition of human 20S proteasome PGPH-like activity using Cbz-LLE-AMC as a fluorogenic substrate at 130 uM measured every 20 seconds for 10 mins by fluorescence based assay; type: protein-complex assay

Measured: inhibition

Sequence of Calpain-2 catalytic subunit (Homo sapiens) (P17655 whole entry, looked up): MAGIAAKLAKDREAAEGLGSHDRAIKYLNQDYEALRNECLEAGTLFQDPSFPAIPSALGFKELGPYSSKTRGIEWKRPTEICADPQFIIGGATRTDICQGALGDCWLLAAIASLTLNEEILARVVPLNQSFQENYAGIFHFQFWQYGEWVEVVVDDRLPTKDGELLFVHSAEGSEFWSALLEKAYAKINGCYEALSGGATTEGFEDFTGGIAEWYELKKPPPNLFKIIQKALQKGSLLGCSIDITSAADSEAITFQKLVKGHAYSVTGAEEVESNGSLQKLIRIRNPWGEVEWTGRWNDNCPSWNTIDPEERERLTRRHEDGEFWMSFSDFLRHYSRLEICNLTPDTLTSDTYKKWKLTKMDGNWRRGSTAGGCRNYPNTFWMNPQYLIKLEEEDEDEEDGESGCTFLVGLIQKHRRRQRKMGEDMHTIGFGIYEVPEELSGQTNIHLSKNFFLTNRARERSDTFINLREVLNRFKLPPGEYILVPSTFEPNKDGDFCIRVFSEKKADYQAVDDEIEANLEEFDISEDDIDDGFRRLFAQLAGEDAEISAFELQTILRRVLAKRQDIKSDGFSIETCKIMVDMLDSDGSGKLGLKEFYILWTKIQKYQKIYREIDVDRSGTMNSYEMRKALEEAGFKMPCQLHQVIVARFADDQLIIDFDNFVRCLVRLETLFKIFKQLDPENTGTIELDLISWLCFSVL
Sequence of Chymotrypsin (P17538 whole entry, looked up): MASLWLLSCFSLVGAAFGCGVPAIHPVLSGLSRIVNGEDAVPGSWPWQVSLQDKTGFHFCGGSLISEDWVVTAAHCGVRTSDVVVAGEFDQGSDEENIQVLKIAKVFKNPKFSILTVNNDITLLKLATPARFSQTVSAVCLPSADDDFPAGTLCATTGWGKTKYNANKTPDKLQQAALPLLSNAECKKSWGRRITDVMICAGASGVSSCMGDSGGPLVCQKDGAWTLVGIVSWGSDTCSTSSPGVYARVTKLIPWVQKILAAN
Sequence of Chymotrypsin (P40313 whole entry, looked up): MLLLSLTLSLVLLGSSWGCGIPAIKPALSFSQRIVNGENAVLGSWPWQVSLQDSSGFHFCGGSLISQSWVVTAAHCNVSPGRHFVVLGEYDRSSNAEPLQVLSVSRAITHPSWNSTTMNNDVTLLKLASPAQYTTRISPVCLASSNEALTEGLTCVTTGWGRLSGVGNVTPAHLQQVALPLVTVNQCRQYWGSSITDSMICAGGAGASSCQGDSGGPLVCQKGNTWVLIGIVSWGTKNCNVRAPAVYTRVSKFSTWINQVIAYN
Sequence of Chymotrypsin (Q6GPI1 whole entry, looked up): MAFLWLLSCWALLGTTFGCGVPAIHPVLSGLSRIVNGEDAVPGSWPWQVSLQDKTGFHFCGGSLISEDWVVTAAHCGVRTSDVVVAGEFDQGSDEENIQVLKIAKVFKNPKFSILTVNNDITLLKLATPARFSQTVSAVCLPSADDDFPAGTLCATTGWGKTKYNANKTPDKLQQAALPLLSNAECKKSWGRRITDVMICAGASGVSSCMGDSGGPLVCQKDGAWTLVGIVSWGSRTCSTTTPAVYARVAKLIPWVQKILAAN
Sequence of Chymotrypsin (Q99895 whole entry, looked up): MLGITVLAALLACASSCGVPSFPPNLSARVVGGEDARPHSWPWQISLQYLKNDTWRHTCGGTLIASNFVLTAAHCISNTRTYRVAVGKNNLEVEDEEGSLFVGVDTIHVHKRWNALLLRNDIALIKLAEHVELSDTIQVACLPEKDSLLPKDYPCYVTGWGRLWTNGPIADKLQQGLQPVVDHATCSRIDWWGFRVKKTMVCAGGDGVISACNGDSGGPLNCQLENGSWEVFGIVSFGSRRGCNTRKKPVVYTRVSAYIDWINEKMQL

CC(C)C[C@H](NC(=O)[C@H](CCc1ccccc1)NC(=O)CN1CCOCC1)C(=O)N[C@@H](Cc1ccccc1)C(=O)N[C@@H](CC(C)C)C(=O)[C@@]1(C)CO1
not listed: [4]
inactive: all other assays above

CC(=O)N[C@@H](Cc1ccc([N+](=O)[O-])c(F)c1)C(=O)N[C@@H](CC(C)C)C(=O)N[C@@H](CC1C(=O)Nc2ccc(O)cc21)C(=O)N[C@@H](CC(C)C)C(=O)[C@@]1(C)CO1 (some centres undefined)
inactive: all assays above

CC(=O)N[C@H]1Cc2ccc([N+](=O)[O-])c(c2)Oc2ccc(cc2)CC[C@@H](C(=O)N[C@@H](CC(C)C)C(=O)[C@@]2(C)CO2)NC(=O)[C@H](CC(C)C)NC1=O
inactive: all assays above

CC(=O)N[C@H]1Cc2ccc([N+](=O)[O-])c(c2)Oc2ccc3c(c2)C(C[C@@H](C(=O)N[C@@H](CC(C)C)C(N)=O)NC(=O)[C@H](CC(C)C)NC1=O)C(=O)N3 (some centres undefined)
not listed: [1]
inactive: all other assays above

CC(=O)N[C@H]1Cc2ccc([N+](=O)[O-])c(c2)Oc2ccc(cc2)C[C@@H](C(=O)N[C@@H](CC(C)C)C(=O)[C@@]2(C)CO2)NC(=O)[C@H](CC(C)C)NC1=O
inactive: all assays above

CC(C)C[C@@H](C=O)NC(=O)[C@@H]1Cc2ccc(cc2)Oc2cc(ccc2[N+](=O)[O-])C[C@H](NC(=O)OCc2ccccc2)C(=O)N[C@@H](CC(C)C)C(=O)N1
inactive: [1] | Chymotrypsin

CC(=O)N[C@H]1Cc2ccc([N+](=O)[O-])c(c2)Oc2ccc3c(c2)C(C[C@@H](C(=O)N[C@@H](CC(C)C)C(=O)[C@@]2(C)CO2)NC(=O)[C@H](CC(C)C)NC1=O)C(=O)N3 (some centres undefined)
not listed: [4]
inactive: all other assays above
